Here are results for 33 compounds from patent publication US20260062422A1 (Halda Therapeutics OpCo, Inc., priority 2022, published 2026).

The structures appear in SMILES notation.

The subject of this assay is T47D cells. Put plainly: Cellular growth inhibition assay for T47D cells, CellTiter-Glo. The class given is cell-based, human. The settings on record: 72 hours treatment, CellTiter-Glo 2.0 cell viability. Here is the method:
T47D cells were purchased from American Type Cell Culture (ATCC Cat #HTB-133) and then seeded on poly-D-lysine coated, black clear-bottom 384-well plates at 3000/well in 25 μL Dulbecco's Modified Eagle Medium (DMEM) supplemented with 10% w/w Fetal bovine serum (FBS), 0.2 units/mL recombinant human insulin (Gibco Cat #12585014), and 1% w/w Pen-Strep. Pen-Strep is a commercially available mixture of penicillin G and streptomycin, which is used in mammalian cell culture media to prevent bacterial contamination. Dulbecco's Modified Eagle Medium (DMEM) supplemented with 10% w/w fetal bovine serum (FBS), 0.2 units/mL recombinant human insulin, and 1% w/w Pen-Strep is herein referred to as Treatment Medium. Following seeding of cells in the plates, the plates were spun at 300×g for 30 seconds, then equilibrated to room temperature for 30 minutes, and then deposited in a humidified tissue culture incubator maintained at 37° C. with 5% CO2.
At 24 hours after seeding of the cells, dilutions of test compound were prepared in DMSO and dissolved in Treatment Medium, to achieve a final DMSO concentration of 0.5% w/w, thereby providing the Test Compound Solution. A 25 μL aliquot of the Test Compound Solution was added to cells in the well plates. An equal volume of a solution containing DMSO and Treatment Medium was used as a negative control. Following treatment of cells with Test Compound Solution or said equal volume of a solution containing DMSO and Treatment Medium, the plates were spun at 300×g for 30 seconds, and then left in an incubator for 72 hours.
At the end of the treatment duration, cell viability was quantified with CellTiter-Glo 2.0 reagent (Promega Cat #G9243). For this purpose, plates were equilibrated to room temperature for 30 minutes, and then 25 μL of CellTiter-Glo 2.0 reagent was added to cells in the plate wells. Plates were then agitated on a shaker for two minutes at 500 rpm and subsequently incubated at room temperature for 10 minutes. Following incubation, the plates were spun at 3000×g for 30 seconds, then sealed with an optical adhesive cover, and luminescence readings were measured with an EnVision Plate Reader (Perkin Elmer).
Data was normalized using zero luminescence for baseline. A four-parameter non-linear regression curve fit was applied to dose-response data in GraphPad Prism data analysis software to determine the half-maximal growth inhibitory concentration (GI50) for each test compound.

`Cc1sc2c(c1C)C(c1ccc(CCOC3CCN(c4ncc(C(=O)N[C@H]5C(C)(C)[C@H](Oc6ccc(C#N)c(Cl)c6)C5(C)C)cn4)CC3)cc1)=N[C@@H](C)c1nnc(C)n1-2` [Compound I-501] registered a GI50 (Homo sapiens, T47D, 72 h) of 500 to 1500 nM.
Same read-out and setting: the same measure for `Cc1sc2c(c1C)C(c1ccc(CC3CC4(CCN(c5ccc(C(=O)N[C@H]6C(C)(C)[C@H](Oc7ccc(C#N)c(Cl)c7)C6(C)C)nc5)CC4)C3)cc1)=N[C@@H](Cc1ncco1)c1nnc(C)n1-2` [Compound I-553]: < 500 nM.
For `Cc1sc2c(c1C)C(c1ccc(N3CC(CC4CCN(c5cnc(C(=O)N[C@H]6C(C)(C)[C@H](Oc7ccc(C#N)c(Cl)c7)C6(C)C)cn5)CC4)C3)cc1)=NC1(CC1)c1nnc(C)n1-2` [Compound I-526], the GI50 (Homo sapiens, T47D, 72 h) is > 3000 nM.
Consider `Cc1sc2c(c1C)C(c1ccc(C#CC3CC4(CCCN(c5ncc(C(=O)N[C@H]6C(C)(C)[C@H](Oc7ccc(C#N)c(Cl)c7)C6(C)C)cn5)C4)C3)cc1)=NC1(CC1)c1nnc(C)n1-2` [Compound I-486], for which the GI50 (Homo sapiens, T47D, 72 h) is > 3000 nM.
`Cc1sc2c(c1C)C(c1ccc(N3CC(CC4CCN(c5ncc(C(=O)N[C@H]6C(C)(C)[C@H](Oc7ccc(C#N)c(Cl)c7)C6(C)C)cn5)CC4)C3)cc1)=N[C@@H](Cc1ncco1)c1nnc(C)n1-2` [Compound I-574]: for the setting “Homo sapiens, T47D, 72 h”, the GI50 is < 500 nM.
On the same count and under the same terms, then `Cc1sc2c(c1C)C(c1ccc([C@@H]3C[C@H]3C3CC4(CCN(c5cnc(C(=O)N[C@H]6C(C)(C)[C@H](Oc7ccc(C#N)c(Cl)c7)C6(C)C)cn5)CC4)C3)cc1)=N[C@@H](Cc1ncco1)c1nnc(C)n1-2` [Compound I-518], with > 3000 nM; and `Cc1sc2c(c1C)C(c1ccc(OC3CC4(C3)CC3(CCN(c5ccc(C(=O)N[C@H]6C(C)(C)[C@H](Oc7ccc(C#N)c(Cl)c7)C6(C)C)nc5)CC3)C4)cc1)=N[C@@H](Cc1ncco1)c1nnc(C)n1-2` [Compound I-546], with > 3000 nM.
In turn, `Cc1sc2c(c1C)C(c1ccc(C#CC3CCC(Cc4ncc(C(=O)N[C@H]5C(C)(C)[C@H](Oc6ccc(C#N)c(Cl)c6)C5(C)C)cn4)CC3)cc1)=N[C@@H](Cc1ncco1)c1nnc(C)n1-2` (stereo partly drawn) [Compound I-506] registered a GI50 of 500 to 1500 nM.
On to `Cc1sc2c(c1C)C(c1ccc(C#CC3CC(Cc4ncc(C(=O)N[C@H]5C(C)(C)[C@H](Oc6ccc(C#N)c(Cl)c6)C5(C)C)cn4)C3)cc1)=NC(Cc1ncco1)c1nnc(C)n1-2` (stereo partly drawn) [Compound I-560], for which the GI50 (Homo sapiens, T47D, 72 h) is 500 to 1500 nM.
Still for that read-out and setting: the same measure for `Cc1sc2c(c1C)C(c1ccc(ON3CC4(C3)CC3(CCN(c5cnc(C(=O)N[C@H]6C(C)(C)[C@H](Oc7ccc(C#N)c(Cl)c7)C6(C)C)cn5)CC3)C4)cc1)=N[C@@H](Cc1ncco1)c1nnc(C)n1-2` [Compound I-545]: 500 to 1500 nM.
In the case of `Cc1sc2c(c1C)C(c1ccc(CC3CC(CC4CCN(c5ncc(C(=O)N[C@H]6C(C)(C)[C@H](Oc7ccc(C#N)c(Cl)c7)C6(C)C)cn5)CC4)C3)cc1)=N[C@@H](C)c1nnc(C)n1-2` (stereo partly drawn) [Compound I-513], the GI50 is < 500 nM.
On to `Cc1sc2c(c1C)C(c1ccc(N3CC(C4CCN(c5cnc(C(=O)N[C@H]6C(C)(C)[C@H](Oc7ccc(C#N)c(Cl)c7)C6(C)C)cn5)CC4)C3)cc1)=N[C@@H](Cc1ncco1)c1nnc(C)n1-2` [Compound I-558], for which, for the setting “Homo sapiens, T47D, 72 h”, the GI50 was < 500 nM.
On to `Cc1sc2c(c1C)C(c1ccc(C#CC3CC4(CCCN(c5ncc(C(=O)N[C@H]6C(C)(C)[C@H](Oc7ccc(C#N)c(Cl)c7)C6(C)C)cn5)C4)C3)cc1)=NC1(CC1)c1nnc(C)n1-2` [Compound I-487], for which the GI50 was > 3000 nM.
Consider `Cc1sc2c(c1C)C(c1ccc(CC3CCN(c4ncc(C(=O)N[C@H]5C(C)(C)[C@H](Oc6ccc(C#N)c(Cl)c6)C5(C)C)cn4)CC3)cc1)=N[C@@H](Cc1ncco1)c1nnc(C)n1-2` [Compound I-554], for which the GI50 (Homo sapiens, T47D, 72 h) is < 500 nM.
`Cc1sc2c(c1C)C(c1ccc(N3CC(CC4CCN(c5ccc(C(=O)N[C@H]6C(C)(C)[C@H](Oc7ccc(C#N)c(Cl)c7)C6(C)C)cn5)CC4)C3)cc1)=NC1(CC1)c1nnc(C)n1-2` [Compound I-523]: the GI50 (Homo sapiens, T47D, 72 h) was in the range of 1500 to 3000 nM.
On the same count and under the same terms, the same measure for `Cc1sc2c(c1C)C(c1ccc(N3CC(CC4CN(c5ccc(C(=O)N[C@H]6C(C)(C)[C@H](Oc7ccc(C#N)c(Cl)c7)C6(C)C)cn5)C4)C3)cc1)=NC1(CC1)c1nnc(C)n1-2` [Compound I-532]: > 3000 nM.
`Cc1sc2c(c1C)C(c1ccc([C@H]3C[C@@H]3CC3CCCN(c4ncc(C(=O)N[C@H]5C(C)(C)[C@H](Oc6ccc(C#N)c(Cl)c6)C5(C)C)cn4)C3)cc1)=NC(Cc1ncco1)c1nnc(C)n1-2` (stereo partly drawn) [Compound I-494]: the GI50 was < 500 nM.
`Cc1sc2c(c1C)C(c1ccc(N3CC(CC4CN(c5cnc(C(=O)N[C@H]6C(C)(C)[C@H](Oc7ccc(C#N)c(Cl)c7)C6(C)C)cn5)C4)C3)cc1)=NC1(CC1)c1nnc(C)n1-2` [Compound I-527]: the GI50 (Homo sapiens, T47D, 72 h) was > 3000 nM.
On the same count and under the same terms, then `Cc1sc2c(c1C)C(c1ccc(CC3CC(CC4CCN(c5ncc(C(=O)N[C@H]6C(C)(C)[C@H](Oc7ccc(C#N)c(Cl)c7)C6(C)C)cn5)CC4)C3)cc1)=N[C@@H](C)c1nnc(C)n1-2` (stereo partly drawn) [Compound I-512], with < 500 nM.
On the same count and under the same terms, then `Cc1sc2c(c1C)C(c1ccc(N3CC(CC4CN(c5cnc(C(=O)N[C@H]6C(C)(C)[C@H](Oc7ccc(C#N)c(Cl)c7)C6(C)C)cn5)C4)C3)cc1)=N[C@@H](Cc1ncco1)c1nnc(C)n1-2` [Compound I-563], with < 500 nM; and `Cc1sc2c(c1C)C(c1ccc(OC3CC4(C3)CC3(CCN(c5cnc(C(=O)N[C@H]6C(C)(C)[C@H](Oc7ccc(C#N)c(Cl)c7)C6(C)C)cn5)CC3)C4)cc1)=NC1(CC1)c1nnc(C)n1-2` [Compound I-521], with > 3000 nM; and `Cc1sc2c(c1C)C(c1ccc(C3CC3C3CC4(CCN(c5ncc(C(=O)N[C@H]6C(C)(C)[C@H](Oc7ccc(C#N)c(Cl)c7)C6(C)C)cn5)CC4)C3)cc1)=N[C@@H](C)c1nnc(C)n1-2` (stereo partly drawn) [Compound I-537], with > 3000 nM.
The same measure, in the same setting: then `Cc1sc2c(c1C)C(c1ccc(N3CC(C4CCCC(Cc5ncc(C(=O)N[C@H]6C(C)(C)[C@H](Oc7ccc(C#N)c(Cl)c7)C6(C)C)cn5)C4)C3)cc1)=N[C@@H](Cc1ncco1)c1nnc(C)n1-2` (stereo partly drawn) [Compound I-579], with < 500 nM.
For the compound `Cc1sc2c(c1C)C(c1ccc(N3CC(C4CCCC(Cc5ncc(C(=O)N[C@H]6C(C)(C)[C@H](Oc7ccc(C#N)c(Cl)c7)C6(C)C)cn5)C4)C3)cc1)=N[C@@H](Cc1ncco1)c1nnc(C)n1-2` (stereo partly drawn) [Compound I-581], the GI50 was < 500 nM.
On the same count and under the same terms, the same measure for `Cc1sc2c(c1C)C(c1ccc(C3CC(CC4CCN(c5ncc(C(=O)N[C@H]6C(C)(C)[C@H](Oc7ccc(C#N)c(Cl)c7)C6(C)C)cn5)CC4)C3)cc1)=NC(C)c1nnc(C)n1-2` (stereo partly drawn) [Compound I-511]: > 3000 nM; for `Cc1sc2c(c1C)C(c1ccc([C@H]3C[C@@H]3CC3CCCN(c4ncc(C(=O)N[C@H]5C(C)(C)[C@H](Oc6ccc(C#N)c(Cl)c6)C5(C)C)cn4)C3)cc1)=NC(Cc1ncco1)c1nnc(C)n1-2` (stereo partly drawn) [Compound I-491]: > 3000 nM.
For the compound `Cc1sc2c(c1C)C(c1ccc([C@H]3C[C@@H]3CC3CCCN(c4ncc(C(=O)N[C@H]5C(C)(C)[C@H](Oc6ccc(C#N)c(Cl)c6)C5(C)C)cn4)C3)cc1)=NC(Cc1ncco1)c1nnc(C)n1-2` (stereo partly drawn) [Compound I-496], the GI50 is < 500 nM.
As to `Cc1sc2c(c1C)C(c1ccc(C3CC3C3CC4(CCN(c5cnc(C(=O)N[C@H]6C(C)(C)[C@H](Oc7ccc(C#N)c(Cl)c7)C6(C)C)cn5)CC4)C3)cc1)=NC(Cc1ncco1)c1nnc(C)n1-2` (stereo partly drawn) [Compound I-538], the GI50 is > 3000 nM.
Turning to `Cc1sc2c(c1C)C(c1ccc(C#CC3CC(Cc4ncc(C(=O)N[C@H]5C(C)(C)[C@H](Oc6ccc(C#N)c(Cl)c6)C5(C)C)cn4)C3)cc1)=NC(Cc1ncco1)c1nnc(C)n1-2` (stereo partly drawn) [Compound I-561], the GI50 was < 500 nM.
Turning to `Cc1sc2c(c1C)C(c1ccc(N3CC(CC4CCN(c5cnc(C(=O)N[C@H]6C(C)(C)[C@H](Oc7ccc(C#N)c(Cl)c7)C6(C)C)cn5)CC4)C3)cc1)=N[C@@H](Cc1ncco1)c1nnc(C)n1-2` [Compound I-575], the GI50 (Homo sapiens, T47D, 72 h) was < 500 nM.
In the case of `Cc1sc2c(c1C)C(c1ccc(N3CC(C4CCC(Cc5ncc(C(=O)N[C@H]6C(C)(C)[C@H](Oc7ccc(C#N)c(Cl)c7)C6(C)C)cn5)CC4)C3)cc1)=N[C@@H](Cc1ncco1)c1nnc(C)n1-2` (stereo partly drawn) [Compound I-543], the GI50 was > 3000 nM.
In turn, `Cc1sc2c(c1C)C(c1ccc(N3CC4(C3)CN(c3cnc(C(=O)N[C@H]5C(C)(C)[C@H](Oc6ccc(C#N)c(Cl)c6)C5(C)C)cn3)C4)cc1)=N[C@@H](C)c1nnc(C)n1-2` [Compound I-517] came in with a GI50 (Homo sapiens, T47D, 72 h) of 1500 to 3000 nM.
As for `Cc1sc2c(c1C)C(c1ccc(CC3CC(C4CCCN(c5ncc(C(=O)N[C@H]6C(C)(C)[C@H](Oc7ccc(C#N)c(Cl)c7)C6(C)C)cn5)C4)C3)cc1)=N[C@@H](C)c1nnc(C)n1-2` (stereo partly drawn) [Compound I-489], the GI50 was < 500 nM.
